The text below walks through data of US6727232B2, “Nucleoside peptide antibiotics of AA-896” (Wyeth Holdings Corporation, priority 2001, dated 2004).

Assay in all cases: Broth dilution MIC
What all share (assay type): cell-based

The subject of one assay is CNS GC 4537. The following applies: CNS GC 4537; Mueller-Hinton broth, 18 hours at 35° C.; read-out: Antimicrobial Activity (MIC). The method in brief: (§1)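 Compounds were serially diluted in Mueller-Hinton broth and inoculated with bacterial suspension. After 18 hours at 35° C., the MIC was taken as the lowest concentration inhibiting visible growth of the strain.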
A further assay relates to CNS GC 4538. Conditions: CNS GC 4538; Mueller-Hinton broth, 18 hours at 35° C.; read-out: Antimicrobial Activity (MIC). The method in brief: as §1
For the next assay, the system named is CNS GC 4547. The following applies: CNS GC 4547; Mueller-Hinton broth, 18 hours at 35° C.; read-out: Antimicrobial Activity (MIC). A digest of the protocol: as §1
The next assay has as its system E. cloacae GC 3783. The following applies: Enterobacter cloacae, GC3783; E. cloacae GC 3783; Mueller-Hinton broth, 18 hours at 35° C.; read-out: Antimicrobial Activity (MIC). A digest of the protocol: as §1
A further assay deals with E. coli GC 2203. The following applies: Escherichia coli, GC2203; E. coli GC 2203; Mueller-Hinton broth, 18 hours at 35° C.; read-out: Antimicrobial Activity (MIC). The method in brief:
as §1

The test system of a further assay is E. coli GC 3226. Conditions: Escherichia coli, GC3226; E. coli GC 3226; Mueller-Hinton broth, 18 hours at 35° C.; read-out: Antimicrobial Activity (MIC). A digest of the protocol: as §1
The subject of the next assay is E. coli GC 4559. Conditions: Escherichia coli, GC4559; E. coli GC 4559; Mueller-Hinton broth, 18 hours at 35° C.; read-out: Antimicrobial Activity (MIC). The method in brief: as §1
Another assay concerns E. coli GC 4560. Conditions: Escherichia coli, read-out: Antimicrobial Activity (MIC). The method in brief: as §1
In another assay the test system is E. faecalis GC 2242. Conditions: Enterococcus faecalis, GC2242; E. faecalis GC 2242; Mueller-Hinton broth, 18 hours at 35° C.; read-out: Antimicrobial Activity (MIC). A digest of the protocol: as §1
The test system of a further assay is E. faecalis GC 4555. Conditions: Enterococcus faecalis, GC4555; E. faecalis GC 4555; Mueller-Hinton broth, 18 hours at 35° C.; read-out: Antimicrobial Activity (MIC). The method in brief: as §1
The next assay has as its system E. faecalis GC 842. Conditions: Enterococcus faecalis, GC842; E. faecalis GC 842; Mueller-Hinton broth, 18 hours at 35° C.; read-out: Antimicrobial Activity (MIC). A digest of the protocol: as §1
The test system of the next assay is K. pneumoniae GC 4534. The following applies: Klebsiella pneumoniae, GC4534; K. pneumoniae GC 4534; Mueller-Hinton broth, 18 hours at 35° C.; read-out: Antimicrobial Activity (MIC). The method in brief: as §1
The test system of a further assay is M. morganii GC 4531. The following applies: Morganella morganii, GC4531; M. morganii GC 4531; Mueller-Hinton broth, 18 hours at 35° C.; read-out: Antimicrobial Activity (MIC). A digest of the protocol:
as §1

For a further assay, the system named is P. aeruginosa GC 2214. Conditions: Pseudomonas aeruginosa, GC2214; P. aeruginosa GC 2214; Mueller-Hinton broth, 18 hours at 35° C.; read-out: Antimicrobial Activity (MIC). A digest of the protocol: as §1
A further assay deals with P. aeruginosa GC 4532. The following applies: Pseudomonas aeruginosa, GC4532; P. aeruginosa GC 4532; Mueller-Hinton broth, 18 hours at 35° C.; read-out: Antimicrobial Activity (MIC). The method in brief: as §1
The test system of a further assay is P. rettgeri GC 4530. The following applies: Providencia rettgeri, GC4530; P. rettgeri GC 4530; Mueller-Hinton broth, 18 hours at 35° C.; read-out: Antimicrobial Activity (MIC). The method in brief:
as §1

The next assay deals with S. aureus GC 1131. The following applies: Staphylococcus aureus, GC1131; S. aureus GC 1131; Mueller-Hinton broth, 18 hours at 35° C.; read-out: Antimicrobial Activity (MIC). A digest of the protocol:
as §1

The next assay relates to S. aureus GC 2216. Conditions: Staphylococcus aureus, GC2216; S. aureus GC 2216; Mueller-Hinton broth, 18 hours at 35° C.; read-out: Antimicrobial Activity (MIC). A digest of the protocol:
as §1

The test system of another assay is S. aureus GC 4536. Conditions: Staphylococcus aureus, GC4536; S. aureus GC 4536; Mueller-Hinton broth, 18 hours at 35° C.; read-out: Antimicrobial Activity (MIC). A digest of the protocol: as §1
A further assay relates to S. marcescens GC 4077. The following applies: Serratia marcescens, GC4077; S. marcescens GC 4077; Mueller-Hinton broth, 18 hours at 35° C.; read-out: Antimicrobial Activity (MIC). A digest of the protocol:
as §1

Converted amounts (≈) assume the structure as drawn. Read-outs that look alike come from different tables or passages of the source.

Regarding `COc1ccc(N2C(=O)C([C@@H](OC3O[C@H](CN)[C@H](O)[C@H]3OC)[C@H]3O[C@@H](n4ccc(=O)[nH]c4=O)[C@H](O)[C@@H]3O)N(CCCNC(=O)C(NC(=O)C(NC(=O)NC(C(=O)O)C(C)C)C3CCNC(=N)N3)C(O)C(C)C)C2=O)cc1` (stereo partly drawn) [Example 4, 14-[5-((R)-{[(3R,4S,5R)-5-(Aminomethyl)-4-hydroxy-3-methoxytetrahydro-2-furanyl]oxy}{(2S,3S,4R,5R)-5-[2,4-dioxo-3,4-dihydro-1 (2H)-pyrimidinyl]-3,4-dihydroxytetrahydro-2-furanyl}methyl)-3-(4-methoxyphenyl)-2,4-dioxo-1-imidazolidinyl]-9-(1-hydroxy-2-methylpropyl)-6-(2-iminohexahydro-4-pyrimidinyl)-2-isopropyl-4,7,10-trioxo-3,5,8,11-tetraazatetradecan-1-oic acid], the MIC in the assay on CNS GC 4537, in the assay on CNS GC 4538, with CNS GC 4547, with E. cloacae GC 3783, in the assay with E. coli GC 2203 and in the assay with E. coli GC 3226 was over 32 µg/mL in each case. Besides, the minimum inhibitory concentration (MIC) (commonly the smallest concentration in the dilution series that meets the test's criterion for growth inhibition) with E. coli GC 4559 is over 32 µg/mL; in the assay with E. coli GC 4560 (GC4560, 18 h), over 32 µg/mL; in the assay with E. faecalis GC 2242, over 32 µg/mL; with E. faecalis GC 4555 it was over 32 µg/mL; in the assay with E. faecalis GC 842 it was over 32 µg/mL; with K. pneumoniae GC 4534, over 32 µg/mL. Also, the MIC in the assay with M. morganii GC 4531, in the assay with P. aeruginosa GC 2214, with P. aeruginosa GC 4532, with P. rettgeri GC 4530, in the assay on S. aureus GC 1131 and with S. aureus GC 2216 was over 32 µg/mL in each case. Besides, the MIC with S. aureus GC 4536 and in the assay on S. marcescens GC 4077 was over 32 µg/mL in each case.

For `CO[C@H]1C(O[C@H](C(C(=O)O)N(CCCNC(=O)C(NC(=O)C(NC(=O)NC(C(=O)O)C(C)C)C2CCNC(=N)N2)C(O)C(C)C)Cc2ccccc2)[C@H]2O[C@@H](n3ccc(=O)[nH]c3=O)[C@H](O)[C@@H]2O)O[C@H](CNCc2ccccc2)[C@@H]1O` (stereo partly drawn) [Example 20B, 15-Benzyl-16-((R)-({(3R,4S,5R)-5-[(benzylamino)methyl]-4-hydroxy-3-methoxytetrahydro-2-furanyl}oxy){(2S,3S,4R,5R)-5-[2,4-dioxo-3,4-dihydro-1 (2H)-pyrimidinyl]-3,4-dihydroxytetrahydro-2-furanyl}methyl)-9-(1-hydroxy-2-methylpropyl)-6-(2-iminohexahydro-4-pyrimidinyl)-2-isopropyl-4,7,10-trioxo-3,5,8,11,15-pentaazaheptadecane-1,17-dioic Acid], the MIC in the assay with CNS GC 4537, in the assay on CNS GC 4538, with CNS GC 4547, in the assay on E. cloacae GC 3783, with E. coli GC 2203 and with E. coli GC 3226 was over 32 µg/mL throughout. Moreover, the minimal inhibitory concentration (MIC) in the assay with E. coli GC 4559 was over 32 µg/mL; in the assay on E. coli GC 4560 (GC4560, 18 h), 32 µg/mL (≈ 28.4 µM); in the assay on E. faecalis GC 2242, over 32 µg/mL; with E. faecalis GC 4555, over 32 µg/mL; in the assay with E. faecalis GC 842 it was over 32 µg/mL; in the assay on K. pneumoniae GC 4534 it was over 32 µg/mL. The MIC with M. morganii GC 4531, in the assay on P. aeruginosa GC 2214, with P. aeruginosa GC 4532, in the assay on P. rettgeri GC 4530, in the assay on S. aureus GC 1131 and in the assay with S. aureus GC 2216 was over 32 µg/mL throughout. The MIC in the assay on S. aureus GC 4536 and in the assay with S. marcescens GC 4077 was over 32 µg/mL each time.

As to `CCCCCN(CCCNC(=O)C(NC(=O)C(NC(=O)NC(C(=O)O)C(C)C)C1CCNC(=N)N1)C(O)C(C)C)C(C(=O)O)[C@@H](OC1O[C@H](CN)[C@H](O)[C@H]1OC)[C@H]1O[C@@H](n2ccc(=O)[nH]c2=O)[C@H](O)[C@@H]1O` (stereo partly drawn) [Example 9, 16-((R)-{[(3R,4S,5R)-5-(Aminomethyl)-4-hydroxy-3-methoxytetrahydro-2-furanyl]oxy}{(2S,3S,4R,5R)-5-[2,4-dioxo-3,4-di hydro-1 (2H)-pyrimidinyl]-3,4-dihydroxytetrahydro-2-furanyl}methyl)-9-(1-hydroxy-2-methylpropyl)-6-(2-iminohexahydro-4-pyrimidinyl)-2-isopropyl-4,7,10-trioxo-15-pentyl-3,5,8,11,15-pentaazaheptadecane-1,17-dioic Acid], the MIC in the assay on CNS GC 4537, with CNS GC 4538, in the assay with CNS GC 4547, in the assay with E. cloacae GC 3783, with E. coli GC 2203 and in the assay on E. coli GC 3226 was over 32 µg/mL each time. For the same compound, the minimum inhibitory concentration (MIC) in the assay with E. coli GC 4559 is over 32 µg/mL; in the assay on E. coli GC 4560 (GC4560, 18 h), 32 µg/mL (≈ 31.5 µM); in the assay with E. faecalis GC 2242, over 32 µg/mL; in the assay with E. faecalis GC 4555 it was over 32 µg/mL; with E. faecalis GC 842, over 32 µg/mL; with K. pneumoniae GC 4534 it was over 32 µg/mL. Further, the MIC in the assay with M. morganii GC 4531, in the assay on P. aeruginosa GC 2214, with P. aeruginosa GC 4532, in the assay with P. rettgeri GC 4530, with S. aureus GC 1131 and in the assay on S. aureus GC 2216 was over 32 µg/mL throughout. For the same compound, the MIC in the assay on S. aureus GC 4536 and in the assay on S. marcescens GC 4077 was over 32 µg/mL each time.

On to `CCCCCCCCNC(=O)NC[C@H]1OC(O[C@H](C2C(=O)N(CCCCCCCC)C(=O)N2CCCNC(=O)C(NC(=O)C(NC(=O)NC(C(=O)O)C(C)C)C2CCNC(=N)N2)C(O)C(C)C)[C@H]2O[C@@H](n3ccc(=O)[nH]c3=O)[C@H](O)[C@@H]2O)[C@H](OC)[C@H]1O` (stereo partly drawn) [Example 11, 14-[5-((R)-{(2S,3S,4R,5R)-5-[2,4-Dioxo-3,4-dihydro-1 (2H)-pyrimidinyl]-3,4-dihydroxytetrahydro-2-furanyl}{[(3R,4S,5R)-4-hydroxy-3-methoxy-5-({[(octylamino)carbonyl]amino}methyl)tetrahydro-2-furanyl]oxy}methyl)-3-octyl-2,4-dioxo-1-imidazolidinyl]-9-(1-hydroxy-2-methylpropyl)-6-(2-iminohexahydro-4-pyrimidinyl)-2-isopropyl-4,7,10-trioxo-3,5,8,11-tetraazatetradecan-1-oic Acid], for which the minimal inhibitory concentration (MIC) in the assay with CNS GC 4537, with CNS GC 4538, in the assay on CNS GC 4547, with E. cloacae GC 3783, with E. coli GC 2203 and in the assay with E. coli GC 3226 was over 32 µg/mL in each case. For the same compound, the MIC was over 32 µg/mL with E. coli GC 4559; over 32 µg/mL in the assay with E. coli GC 4560 (GC4560, E. coli GC 4560, Mueller-Hinton broth, 18 hours at 35° C.); over 32 µg/mL in the assay with E. faecalis GC 2242; over 32 µg/mL in the assay on E. faecalis GC 4555; over 32 µg/mL in the assay on E. faecalis GC 842; over 32 µg/mL with K. pneumoniae GC 4534. Further, the MIC in the assay with M. morganii GC 4531, in the assay with P. aeruginosa GC 2214, in the assay with P. aeruginosa GC 4532, with P. rettgeri GC 4530, with S. aureus GC 1131 and in the assay with S. aureus GC 2216 was over 32 µg/mL in each case. For the same compound, the minimal inhibitory concentration (MIC) with S. aureus GC 4536 and in the assay with S. marcescens GC 4077 was over 32 µg/mL throughout.
